# In patent US8231888B2, “Isoxazolines for controlling invertebrate pests” (priority 2005, dated 2012):
# Key:
# Format in all cases: in vivo
# [1] = system: diamondback moth (Plutella xylostella); assay: Test A: control of diamondback moth on radish plant, foliar spray; details: sprayed at 250 and/or 50 ppm, 6 days, 25° C.; no asterisk (not limited to 250 ppm)
# Description: For evaluating control of diamondback moth (Plutella xylostella) the test unit consisted of a small open container with a 12-14-day-old radish plant inside. This was pre-infested with about 50 neonate larvae that were dispensed into the test unit via corn cob grits using a bazooka inoculator. The larvae moved onto the test plant after being dispensed into the test unit.
# (§1) Test compounds were formulated using a solution containing 10% acetone, 90% water and 300 ppm X-77™ Spreader Lo-Foam Formula non-ionic surfactant containing alkylarylpolyoxyethylene, free fatty acids, glycols and isopropanol (Loveland Industries, Inc. Greeley, Colo., USA). The formulated compounds were applied in 1 mL of liquid through a SUJ2 atomizer nozzle with 1/8 JJ custom body (Spraying Systems Co. Wheaton, Ill., USA) positioned 1.27 cm (0.5 inches) above the top of each test unit. All experimental compounds in these tests were sprayed at 250 and/or 50 ppm, and the test was replicated three times. After spraying of the formulated test compound, each test unit was allowed to dry for 1 h and then a black, screened cap was placed on top. The test units were held for 6 days in a growth chamber at 25° C. and 70% relative humidity. Plant feeding damage was then visually assessed based on foliage consumed and a pest mortality rating was also counted and calculated for each test unit.
# [2] = system: fall armyworm (Spodoptera frugiperda); assay: Test B: control of fall armyworm on corn (maize) plant, foliar spray; details: sprayed at 250 and/or 50 ppm; no asterisk (not limited to 250 ppm)
# Protocol: as §1
# For evaluating control of fall armyworm (Spodoptera frugiperda) the test unit consisted of a small open container with a 4-5-day-old corn (maize) plant inside. This was pre-infested (using a core sampler) with 10-15 1-day-old larvae on a piece of insect diet. Test compounds were formulated and sprayed at 250 and/or 50 ppm as described for Test A and replicated three times. After spraying, the test units were maintained in a growth chamber and then the control efficacy was rated for each test unit as described for Test A.
# [3] = system: western flower thrips (Frankliniella occidentalis); assay: Test D: control of western flower thrips on Soleil bean plant, contact and/or systemic; details: 6 days, 25° C.
# Protocol: as §1
# For evaluating control of the western flower thrips (Frankliniella occidentalis) through contact and/or systemic means, the test unit consisted of a small open container with a 5-7 day old Soleil Bean plant inside. Test compounds were formulated and sprayed at 250 and/or 50 ppm, and the test was replicated three times as described for Test A. After spraying, the test units were allowed to dry for 1 hour and then 22-27 adult thrips were added to each unit and then a black, screened cap was placed on top. The test units were held for 6 days at 25° C. and 45-55% relative humidity. A mortality rating was assessed along with a plant damage rating for each test unit.
# [4] = sprayed at 250 and/or 50 ppm, no asterisk (not limited to 250 ppm)
# [5] = asterisk: observed only at 250 ppm
Structure (SMILES),control efficacy (20% or less feeding damage or 80% or more mortality) [1],control efficacy (20% or less feeding damage or 80% or more mortality) [2],"control efficacy (20% or less feeding damage or 80% or more mortality) [3, 4]","control efficacy (20% or less feeding damage or 80% or more mortality) [3, 5]"
CCC(C)NC(=O)c1ccc(C2=NOC(c3cc(Cl)cc(Cl)c3)(C(F)(F)F)C2)c2ccccc12 (mixture of isomers) [Compound 32],very good to excellent levels of control efficacy,very good to excellent levels of control efficacy,very good to excellent levels of control efficacy,
O=C(NCC(F)(F)F)c1ccc(C2=NOC(c3cc(Cl)cc(Cl)c3)(C(F)(F)F)C2)c2ccccc12 (stereo not drawn) [Compound 1],very good to excellent levels of control efficacy,very good to excellent levels of control efficacy,very good to excellent levels of control efficacy,
FC(F)(F)C1(c2cc(Cl)cc(Cl)c2)CC(c2ccc(C(=S)NCc3ccccn3)c3ccccc23)=NO1 (stereo not drawn) [Compound 8],very good to excellent levels of control efficacy,very good to excellent levels of control efficacy,very good to excellent levels of control efficacy,
CCNC(=O)c1ccc(C2=NOC(c3cc(Cl)cc(Cl)c3)(C(F)(F)F)C2)c2ccccc12 (stereo not drawn) [Compound 10],very good to excellent levels of control efficacy,very good to excellent levels of control efficacy,very good to excellent levels of control efficacy,
COC(=O)N(Cc1ccccn1)C(=O)c1ccc(C2=NOC(c3cc(Cl)cc(Cl)c3)(C(F)(F)F)C2)c2ccccc12 (stereo not drawn) [Compound 11],very good to excellent levels of control efficacy,very good to excellent levels of control efficacy,very good to excellent levels of control efficacy,
CN(C)CCNC(=O)c1ccc(C2=NOC(c3cc(Cl)cc(Cl)c3)(C(F)(F)F)C2)c2ccccc12 (stereo not drawn) [Compound 13],very good to excellent levels of control efficacy,very good to excellent levels of control efficacy,,very good to excellent levels of control efficacy
CN(C)CCNC(=O)c1ccc(C2=NOC(c3cc(Cl)cc(Cl)c3)(C(F)(F)F)C2)c2ccccc12.Cl (stereo not drawn) [Compound 14],very good to excellent levels of control efficacy,very good to excellent levels of control efficacy,,very good to excellent levels of control efficacy
CC(C)NC(=O)c1ccc(C2=NOC(c3cc(Cl)cc(Cl)c3)(C(F)(F)F)C2)c2ccccc12 (stereo not drawn) [Compound 16],very good to excellent levels of control efficacy,very good to excellent levels of control efficacy,very good to excellent levels of control efficacy,
C=CCNC(=O)c1ccc(C2=NOC(c3cc(Cl)cc(Cl)c3)(C(F)(F)F)C2)c2ccccc12 (stereo not drawn) [Compound 18],very good to excellent levels of control efficacy,very good to excellent levels of control efficacy,very good to excellent levels of control efficacy,
C#CCNC(=O)c1ccc(C2=NOC(c3cc(Cl)cc(Cl)c3)(C(F)(F)F)C2)c2ccccc12 (stereo not drawn) [Compound 19],very good to excellent levels of control efficacy,very good to excellent levels of control efficacy,very good to excellent levels of control efficacy,
O=C(NCC1CC1)c1ccc(C2=NOC(c3cc(Cl)cc(Cl)c3)(C(F)(F)F)C2)c2ccccc12 (stereo not drawn) [Compound 20],very good to excellent levels of control efficacy,very good to excellent levels of control efficacy,,very good to excellent levels of control efficacy
CC(NC(=O)c1ccc(C2=NOC(c3cc(Cl)cc(Cl)c3)(C(F)(F)F)C2)c2ccccc12)c1ccccn1 (stereo not drawn) [Compound 21],very good to excellent levels of control efficacy,very good to excellent levels of control efficacy,very good to excellent levels of control efficacy,
O=C(NCc1ccccn1)c1ccc(C2=NOC(c3cc(Br)cc(Br)c3)(C(F)(F)F)C2)c2ccccc12 (stereo not drawn) [Compound 26],very good to excellent levels of control efficacy,very good to excellent levels of control efficacy,very good to excellent levels of control efficacy,
CC(NC(=O)c1ccc(C2=NOC(c3cc(Cl)cc(Cl)c3)(C(F)(F)F)C2)c2ccccc12)C(C)(C)C (stereo not drawn) [Compound 34],very good to excellent levels of control efficacy,very good to excellent levels of control efficacy,,very good to excellent levels of control efficacy
O=C(NCCO)c1ccc(C2=NOC(c3cc(Cl)cc(Cl)c3)(C(F)(F)F)C2)c2ccccc12 (stereo not drawn) [Compound 35],very good to excellent levels of control efficacy,very good to excellent levels of control efficacy,very good to excellent levels of control efficacy,
O=C(N[C@H]1CCc2ccccc21)c1ccc(C2=NOC(c3cc(Cl)cc(Cl)c3)(C(F)(F)F)C2)c2ccccc12 (stereo partly drawn) [Compound 39],very good to excellent levels of control efficacy,very good to excellent levels of control efficacy,,very good to excellent levels of control efficacy
COCCNC(=O)c1ccc(C2=NOC(c3cc(Cl)cc(Cl)c3)(C(F)(F)F)C2)c2ccccc12 (stereo not drawn) [Compound 41],very good to excellent levels of control efficacy,very good to excellent levels of control efficacy,very good to excellent levels of control efficacy,
CCOC(=O)CNC(=O)c1ccc(C2=NOC(c3cc(Cl)cc(Cl)c3)(C(F)(F)F)C2)c2ccccc12 (stereo not drawn) [Compound 42],very good to excellent levels of control efficacy,very good to excellent levels of control efficacy,very good to excellent levels of control efficacy,
O=C(NNc1ccccc1)c1ccc(C2=NOC(c3cc(Cl)cc(Cl)c3)(C(F)(F)F)C2)c2ccccc12 (stereo not drawn) [Compound 46],very good to excellent levels of control efficacy,very good to excellent levels of control efficacy,,very good to excellent levels of control efficacy
COC(=O)[C@@H](NC(=O)c1ccc(C2=NOC(c3cc(Cl)cc(Cl)c3)(C(F)(F)F)C2)c2ccccc12)C(C)C (stereo partly drawn) [Compound 49],very good to excellent levels of control efficacy,very good to excellent levels of control efficacy,very good to excellent levels of control efficacy,
O=C(CNC(=O)c1ccc(C2=NOC(c3cc(Cl)cc(Cl)c3)(C(F)(F)F)C2)c2ccccc12)NCC(F)(F)F (stereo not drawn) [Compound 51],very good to excellent levels of control efficacy,very good to excellent levels of control efficacy,very good to excellent levels of control efficacy,
